Assay results: patent publication US20250324973A1, “Pest Control Composition and Control Method” (priority 2021, published 2025)

Experiments:
Format in all cases: in vivo
[1] = system: cotton aphids, susceptible line or reduced susceptible line; assay: Test Example 17: spray on cucumber seedlings, control value; details: 0.05-200 ppm, 10 ml/seedling, six days after spraying
Excerpt: Natural pyrethrin or MX is formulated according to the method described in the Formulation Example 1. Similarly, triflumezopyrim, flupyradifuron, or flupyrimin is formulated according to the method described in the Formulation Example 1, respectively. Each dilution is obtained by diluting each of the above formulations with water containing 0.05% by volume of a spreading agent (product name: Shindain (registered trademark)) so that the concentration of active ingredient may be 0.05 ppm, 0.2 ppm, 0.8 ppm, 3.1 ppm, 12.5 ppm, 50 ppm or 200 ppm. Each dilution is obtained by diluting Admire wettable powder (Active ingredient: imidacloprid, manufactured by Bayer CropScience K.K.) and Actara water dispersible granule (Active ingredient: thiamethoxam, manufactured by Syngenta Japan K.K.), which are commercial products, with water containing 0.05% by volume of a spreading agent (product name: Shindain (registered trademark)) so that the concentration of active ingredient may be 0.05 ppm, 0.2 ppm, 0.8 ppm, 3.1 ppm, 12.5 ppm, 50 ppm or 200 ppm. Cucumber seedlings (at the second true leaf unfolding stage) planted in a container are inoculated with 30 cotton aphids (including all growth stages) which are a susceptible line (a line that have been bred successively in Health & Crop Sciences Research Laboratory of Sumitomo Chemical Co., Ltd.) or a reduced susceptible line (a line that have been bred successively without selection after collecting in Miyazaki prefecture in 2016). One day later, the resulting dilution is sprayed to the seedlings at a rate of 10 ml/seedling. On the other hand, cucumbers are cultivated in the same way as in the treated plot, except that the dilution containing natural pyrethrin or MX is not sprayed (this is referred to as an untreated plot). Six days after spraying, the number of surviving insects is observed, and a control value is calculated by formula 1).
Letters in the formula have the following meanings • Cb: The number of insects tested in the untreated plot • Cai: The number of surviving insects at the time of observation in the untreated plot • Tb: The number of tested insects in the treated plot • Tai: The number of surviving insects at the time of observation in the treated plot

[2] = system: brown planthopper, susceptible line or reduced susceptible line; assay: Test Example 18: spray on rice seedlings, mortality rate; details: brown planthopper 3rd-instar larvae on rice; 0.05-200 ppm; six days
Method: Natural pyrethrin or MX is formulated according to the method described in the Formulation Example 1. Similarly, flupyradifuron and flupyrimin are formulated according to the method described in the Formulation Example 4, respectively. Each of the above formulations is diluted with water containing 0.05% by volume of a spreading agent (product name: Shindain (registered trademark)) so that the concentration of active ingredient may be 0.05 ppm, 0.2 ppm, 0.8 ppm, 3.1 ppm, 12.5 ppm, 50 ppm or 200 ppm. Admire wettable powder (Active ingredient: imidacloprid, manufactured by Bayer CropScience K.K.), which is a commercial product, is diluted with water containing 0.05% by volume of a spreading agent (product name: Shindain (registered trademark)) so that the concentration of active ingredient may be 0.05 ppm, 0.2 ppm, 0.8 ppm, 3.1 ppm, 12.5 ppm, 50 ppm or 200 ppm. The resulting dilution is sprayed to seedlings (at the 2.5-leaf stage) of rice (Oryza sativa) planted in a container at a rate of 10 ml/seedling. After that, 20 3rd-instar larvae of brown planthopper of a susceptible line (a line that have been bred successively in Health & Crop Sciences Research Laboratory of Sumitomo Chemical Co., Ltd.) or brown planthopper of a reduced susceptible line (a line that have been bred successively without selection after collecting in Nagasaki prefecture in 2016) are released thereto. Six days later, the number of surviving insects is observed, and a mortality rate of insect is calculated by formula 2). On the other hand, rice is cultivated in the same way as in the treated plot, except that the dilution containing natural pyrethrin or MX is not sprayed (this is referred to as an untreated plot).

[3] = system: small brown planthopper, susceptible line or reduced susceptible line; assay: Test Example 20: spray on rice seedlings, mortality rate; details: small brown planthopper 3rd-instar larvae on rice; 0.05-200 ppm; six days
Method: Natural pyrethrin or MX is formulated according to the method described in the Formulation Example 1. Similarly, flupyradifuron and flupyrimin are formulated according to the method described in the Formulation Example 1, respectively. Each of the above formulations is diluted with water containing 0.05% by volume of a spreading agent (product name: Shindain (registered trademark)) so that the concentration of active ingredient may be 0.05 ppm, 0.2 ppm, 0.8 ppm, 3.1 ppm, 12.5 ppm, 50 ppm or 200 ppm. Admire water dispersible granule (Active ingredient: imidacloprid, manufactured by Bayer CropScience K.K.), TREBON emulsifiable concentrate (Active ingredient: etofenprox, manufactured by Mitsui Chemicals Agro, Inc.), PRINCE flowable (Active ingredient: fipronil, manufactured by BASF Japan Ltd.), KIRAPPU flowable (Active ingredient: ethiprole, manufactured by Bayer CropScience K.K.), and APPLAUD flowable (Active ingredient: buprofezin, manufactured by NIHON NOHYAKU CO., LTD), which are commercial products, are diluted with water containing 0.05% by volume of a spreading agent (product name: Shindain (registered trademark)), respectively so that the concentration of active ingredient may be 0.05 ppm, 0.2 ppm, 0.8 ppm, 3.1 ppm, 12.5 ppm, 50 ppm or 200 ppm. The resulting dilution is sprayed to seedlings (at the 2.5-leaf stage) of rice (Oryza sativa) planted in a container at a rate of 10 ml/seedling. After that, 20 3rd-instar larvae of small brown planthopper of a susceptible line (a line that have been bred successively in Health & Crop Sciences Research Laboratory of Sumitomo Chemical Co., Ltd.) or small brown planthopper of a reduced susceptible line (a line that have been bred successively without selection after collecting in Nagasaki prefecture in 2016) are released thereto. Six days later, the number of surviving insects is observed, and a mortality rate of insect is calculated by the formula 2). On the other hand, rice is cultivated in the same way as in the treated plot, except that the dilution containing natural pyrethrin or MX is not sprayed (this is referred to as an untreated plot).

[4] = system: diamondback moth, susceptible line or reduced susceptible line; assay: Test Example 19: spray on cabbage seedlings, mortality rate; details: diamondback moth 3rd-instar larvae on cabbage; 0.05-200 ppm; five days
Method: Natural pyrethrin or MX is formulated according to the method described in the Formulation Example 1. Each of the above formulations is diluted with water containing 0.05% by volume of a spreading agent (product name: Shindain (registered trademark)) so that the concentration of active ingredient may be 0.05 ppm, 0.2 ppm, 0.8 ppm, 3.1 ppm, 12.5 ppm, 50 ppm or 200 ppm. Phoenix water dispersible granule (Active ingredient: flubendiamide, manufactured by NIHON NOHYAKU CO., LTD), PREVATHON flowable 5 (Active ingredient: chlorantraniliprole, manufactured by Nissan Chemical Corporation) and BENEVIA OD (Active ingredient: cyantraniliprole, manufactured by KUMIAI CHEMICAL INDUSTRY CO., LTD.), which are commercial products, are diluted with water containing 0.05% by volume of a spreading agent (product name: Shindain (registered trademark)), respectively so that the concentration of active ingredient may be 0.05 ppm, 0.2 ppm, 0.8 ppm, 3.1 ppm, 12.5 ppm, 50 ppm or 200 ppm. The resulting dilution is sprayed to seedlings (at the 3rd to 4th true leaf unfolding stage) of cabbage (Brassicae oleracea) planted in a container at a rate of 20 ml/seedling. After that, 10 3rd-instar larvae of diamondback moth of a susceptible line (a line that have been bred successively in Health & Crop Sciences Research Laboratory of Sumitomo Chemical Co., Ltd.) or diamondback moth of a reduced susceptible line (a line that have been bred successively without selection after collecting in Kumamoto prefecture in 2016) are released thereto. Five days later, the number of surviving insects is counted, and a mortality rate of insect is calculated by formula 3). On the other hand, cabbages are cultivated in the same way as in the treated plot, except that the dilution containing natural pyrethrin or MX is not sprayed (this is referred to as an untreated plot).

[5] = system: white-backed planthopper, susceptible line or reduced susceptible line; assay: Test Example 21: spray on rice seedlings, mortality rate; details: white-backed planthopper 3rd-instar larvae on rice; 0.05-200 ppm; six days
Method: Natural pyrethrin or MX is formulated according to the method described in the Formulation Example 1. Each of the above formulations is diluted with water containing 0.05% by volume of a spreading agent (product name: Shindain (registered trademark)) so that the concentration of active ingredient may be 0.05 ppm, 0.2 ppm, 0.8 ppm, 3.1 ppm, 12.5 ppm, 50 ppm or 200 ppm. PRINCE flowable (Active ingredient: fipronil, manufactured by BASF Japan Ltd.) and KIRAPPU flowable (Active ingredient: ethiprole, manufactured by Bayer CropScience K.K.), which are commercial products, are diluted with water containing 0.05% by volume of a spreading agent (product name: Shindain (registered trademark)), respectively so that the concentration of active ingredient may be 0.05 ppm, 0.2 ppm, 0.8 ppm, 3.1 ppm, 12.5 ppm, 50 ppm or 200 ppm. The resulting dilution is sprayed to seedlings (at the 2.5-leaf stage) of rice planted in a container at a rate of 10 ml/seedling. […] Six days later, the number of surviving insects is observed, and a mortality rate of insect is calculated by the formula 2). […]

Row | SMILES | effect (control value) on the reduced susceptible line compared with the susceptible line [1] | effect (mortality rate) on the reduced susceptible line compared with the susceptible line [3] | further results
1 | O=C(N=c1ccccn1Cc1ccc(Cl)nc1)C(F)(F)F [flupyrimin] | low compared with that on the sensitive line | low compared with that on the sensitive line | effect (mortality rate) on the reduced susceptible line compared with the susceptible line [2]: low compared with that on the sensitive line
2 | Cc1cc(C(F)(C(F)(F)F)C(F)(F)F)ccc1NC(=O)c1cccc(I)c1C(=O)NC(C)(C)CS(C)(=O)=O [flubendiamide] |  |  | effect (mortality rate) on the reduced susceptible line compared with the susceptible line [4]: low compared with that on the sensitive line
3 | O=[N+]([O-])NC1=NCCN1Cc1ccc(Cl)nc1 [imidacloprid] | low compared with that on the sensitive line | low compared with that on the sensitive line | effect (mortality rate) on the reduced susceptible line compared with the susceptible line [2]: low compared with that on the sensitive line
4 | CC(C)N1C(=O)N(c2ccccc2)CS/C1=N\C(C)(C)C [buprofezin] |  | low compared with that on the sensitive line | 
5 | O=C1C=C(N(Cc2ccc(Cl)nc2)CC(F)F)CO1 [flupyradifuron] | low compared with that on the sensitive line | low compared with that on the sensitive line | effect (mortality rate) on the reduced susceptible line compared with the susceptible line [2]: low compared with that on the sensitive line
6 | N#Cc1nn(-c2c(Cl)cc(C(F)(F)F)cc2Cl)c(N)c1[S+]([O-])C(F)(F)F (centres unmarked) [fipronil] |  | low compared with that on the sensitive line | effect (mortality rate) on the reduced susceptible line compared with the susceptible line [5]: low compared with that on the sensitive line
7 | O=c1c(-c2cccc(C(F)(F)F)c2)c([O-])[n+](Cc2cncnc2)c2ccccn12 [triflumezopyrim] | low compared with that on the sensitive line |  | 
8 | CNC(=O)c1cc(Cl)cc(C)c1NC(=O)c1cc(Br)nn1-c1ncccc1Cl [chlorantraniliprole] |  |  | effect (mortality rate) on the reduced susceptible line compared with the susceptible line [4]: low compared with that on the sensitive line
9 | CCOc1ccc(C(C)(C)COCc2cccc(Oc3ccccc3)c2)cc1 [etofenprox] |  | low compared with that on the sensitive line | 
10 | CC[S+]([O-])c1c(C#N)nn(-c2c(Cl)cc(C(F)(F)F)cc2Cl)c1N (centres unmarked) [ethiprole] |  | low compared with that on the sensitive line | effect (mortality rate) on the reduced susceptible line compared with the susceptible line [5]: low compared with that on the sensitive line
11 | CNC(=O)c1cc(C#N)cc(C)c1NC(=O)c1cc(Br)nn1-c1ncccc1Cl [cyantraniliprole] |  |  | effect (mortality rate) on the reduced susceptible line compared with the susceptible line [4]: low compared with that on the sensitive line
12 | CN1COCN(Cc2cnc(Cl)s2)/C1=N\[N+](=O)[O-] [thiamethoxam] | low compared with that on the sensitive line |  | 
